Measurements published in patent publication US20040039199A1, “Oxabispidine compound useful in the treatment of cardiac arrhythmias” (priority 2000, published 2004).

System: Anaesthetised Guinea Pigs
Assay: Test A: Primary electrophysiological effects in anaesthetised guinea pigs
Type: in vivo, guinea pig
Details: index of class III electrophysiological potency; MAP duration at 75 percent repolarization during pacing; intravenous infusion, cumulative doses; derived from mean dose-response curve
Experimental: Primary Electrophysiological Effects In Anaesthetised Guinea Pigs
Guinea pigs weighing between 660 and 1100 g were used. The animals were housed for at least one week before the experiment and had free access to food and tap water during that period.
Anaesthesia was induced by an intraperitoneal injection of pentobarbital (40 to 50 mg/kg) and catheters were introduced into one carotid artery (for blood pressure recording and blood sampling) and into one jugular vein (for drug infusions). Needle electrodes were placed on the limbs for recording of ECGs (lead II). A thermistor was placed in the rectum and the animal was placed on a heating pad, set to a rectal temperature of between 37.5 and 38.5° C. […]
The left ventricular epicardium was exposed by a left-sided thoracotomy, and a custom-designed suction electrode for recording of the monophasic action potential (MAP) was applied to the left ventricular free wall. The electrode was kept in position as long as an acceptable signal could be recorded, otherwise it was moved to a new position. […]
The blood pressure, the MAP signal and the lead II ECG were recorded on a Mingograph ink-jet recorder (Siemens-Elema, Sweden). […] The signals were processed using a custom-made program developed for acquisition and analysis of physiological signals measured in experimental animals (see Axenborg and Hirsch, Comput. Methods Programs Biomed. 41, 55 (1993)). […]

Question: With `CC(C)(C)C(=O)CN1CC2CN(CCCNc3ccc(C#N)cc3)CC(C1)O2.O=S(=O)(O)c1ccccc1` [Compound A, 4-({3-[7-(3,3-dimethyl-2-oxobutyl)-9-oxa-3,7-diazabicyclo[3.3.1]non-3-yl]propyl}amino)benzonitrile, benzenesulfonic acid salt] as the molecule, how does the “D10 (cumulative dose prolonging the MAP duration by 10% from the baseline)” value read?
Answer: 6.7
